Experimental data: patent publication US12605402B2, “Therapeutic uses of oxidizing hypotonic acid solutions” (APR Applied Pharma Research SA, priority 2019, dated 2026)
Like-named read-outs stand apart in the source and are kept apart here.

Columns and labels:
SARS-CoV-2 = format: cell-based; details: concentration 90% (solution), 63% (ethanol); for Virus Titer: virus control 3.5

Structure (SMILES): CCO [Ethanol]
- toxicity to cells (Vero 76 cells): toxic to cells
- LRV (log reduction value) compared to the virus control (SARS-CoV-2; Contact Time 3 min): >1.8
- Virus Titer (SARS-CoV-2; Contact Time 3 min): <1.7 Log10 CCID50 of virus per 0.1 mL
- LRV (log reduction value) compared to the virus control (SARS-CoV-2; Contact Time <1 min): >1.8
- Virus Titer (SARS-CoV-2; Contact Time <1 min): <1.7 Log10 CCID50 of virus per 0.1 mL
